Reference: article PMC10207366, “Screening and Biological Evaluation of Soluble Epoxide Hydrolase Inhibitors: Assessing the Role of Hydrophobicity in the Pharmacophore-Guided Search of Novel Hits” (Journal of Chemical Information and Modeling, 2023)
Read-outs that look alike come from different tables or passages of the source.

Tests used:
rat sEH (rsEH) = target: T1, rat sEH (rsEH) (Rattus norvegicus, UniProt P80299); assay: fluorescence-based sEH IC50 assay (CMNPC substrate); format: biochemical; settings: experimental
T1 sequence (P80299 1-554): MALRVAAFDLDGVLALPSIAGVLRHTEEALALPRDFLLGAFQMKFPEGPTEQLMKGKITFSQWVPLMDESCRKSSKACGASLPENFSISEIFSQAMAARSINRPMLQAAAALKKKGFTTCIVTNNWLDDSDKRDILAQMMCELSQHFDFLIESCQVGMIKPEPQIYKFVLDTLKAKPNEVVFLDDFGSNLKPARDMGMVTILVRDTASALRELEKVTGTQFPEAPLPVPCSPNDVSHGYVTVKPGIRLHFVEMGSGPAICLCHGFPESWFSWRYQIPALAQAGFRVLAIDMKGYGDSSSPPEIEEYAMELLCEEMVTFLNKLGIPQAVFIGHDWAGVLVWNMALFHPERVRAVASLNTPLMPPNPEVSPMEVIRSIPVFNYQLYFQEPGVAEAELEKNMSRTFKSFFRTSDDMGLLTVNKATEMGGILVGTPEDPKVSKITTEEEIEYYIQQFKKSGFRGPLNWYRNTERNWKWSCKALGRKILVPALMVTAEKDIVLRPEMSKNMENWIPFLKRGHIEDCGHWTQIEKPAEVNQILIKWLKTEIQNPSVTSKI
Procedure: (§1) The IC50 values of the 18 compounds selected from the log P + HB and QE + R3 pharmacophore ranking were determined using a fluorescence-based assay[68] with either purified recombinant hsEH, mouse sEH (msEH), or rat sEH (rsEH). The enzyme was incubated at 30 °C with the inhibitors ([I]final = 0.4–50,000 nM) for 5 min in 100 mM sodium phosphate buffer (200 μL, pH 7.4) containing 0.1 mg/mL of […] (BSA) and 1% dimethyl sulfoxide (DMSO). The substrate (cyano(6-methoxynaphthalen-2-yl)methyl((3-phenyloxiran-2-yl)methyl)carbonate; CMNPC) was then added ([S]final = 5 μM). The activity was assessed by measuring the appearance of the fluorescent 6-methoxynaphthaldehyde product (λex = 330 nm, λem = 465 nm) every 30 s for 10 min at 30 °C on a SpectraMax M2 (Molecular Devices, CA). The results were obtained by regression analysis from a linear region of the curve.

[1] = target: T2, purified recombinant hsEH (Homo sapiens, UniProt P34913); assay: as above; format: biochemical
T2 sequence (P34913 1-555): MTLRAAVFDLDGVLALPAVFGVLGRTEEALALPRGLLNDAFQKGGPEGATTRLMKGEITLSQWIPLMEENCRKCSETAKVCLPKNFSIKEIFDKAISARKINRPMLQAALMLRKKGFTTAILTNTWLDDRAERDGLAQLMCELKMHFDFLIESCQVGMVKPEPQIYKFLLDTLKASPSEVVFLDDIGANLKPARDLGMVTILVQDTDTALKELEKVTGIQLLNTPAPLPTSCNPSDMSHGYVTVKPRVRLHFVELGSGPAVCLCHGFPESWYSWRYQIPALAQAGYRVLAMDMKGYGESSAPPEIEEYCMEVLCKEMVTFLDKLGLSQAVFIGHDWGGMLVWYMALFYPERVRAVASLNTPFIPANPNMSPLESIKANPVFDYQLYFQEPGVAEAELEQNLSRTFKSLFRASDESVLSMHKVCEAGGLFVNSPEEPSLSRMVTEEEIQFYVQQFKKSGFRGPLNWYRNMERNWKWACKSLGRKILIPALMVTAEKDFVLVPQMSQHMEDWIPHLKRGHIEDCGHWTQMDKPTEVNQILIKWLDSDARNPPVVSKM
Procedure: as §1

mouse sEH (msEH) = target: T3, mouse sEH (msEH) (Mus musculus, UniProt P34914); assay: as above; format: biochemical; settings: experimental
T3 sequence (P34914 1-554): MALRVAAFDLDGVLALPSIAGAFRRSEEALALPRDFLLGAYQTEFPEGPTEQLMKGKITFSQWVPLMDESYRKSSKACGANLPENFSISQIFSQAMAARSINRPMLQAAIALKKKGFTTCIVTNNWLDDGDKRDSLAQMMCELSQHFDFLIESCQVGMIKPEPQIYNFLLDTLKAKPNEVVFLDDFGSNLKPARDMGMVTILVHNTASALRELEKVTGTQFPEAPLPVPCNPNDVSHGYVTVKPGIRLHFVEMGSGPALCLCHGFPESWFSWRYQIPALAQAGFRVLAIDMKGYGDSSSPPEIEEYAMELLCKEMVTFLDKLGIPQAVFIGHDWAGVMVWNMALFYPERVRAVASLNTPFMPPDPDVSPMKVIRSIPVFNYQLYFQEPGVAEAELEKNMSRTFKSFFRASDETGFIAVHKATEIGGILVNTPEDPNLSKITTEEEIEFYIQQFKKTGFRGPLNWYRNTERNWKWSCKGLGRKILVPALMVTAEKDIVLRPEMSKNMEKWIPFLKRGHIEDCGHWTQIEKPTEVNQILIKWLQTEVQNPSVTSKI
Procedure: as §1

hsEH = settings: training set, Table S1; ref reference publication (DOI) of Table S1; cited from earlier work
[2] = experimental, human sEH, read-out: pIC50 hsEH (converted)

Structure (SMILES)	IC50 (rat sEH (rsEH)) [µM]	IC50 [1, 2] [µM]	IC50 (mouse sEH (msEH)) [µM]	further results
Cc1ccc(C(C)C)c(OCc2ccc(C(=O)NNC(=O)NC34CC5CC(CC(C5)C3)C4)o2)c1 [AK-968/15603026, Cc1ccc(C(C)C)c(OCc2ccc(C(=O)NNC(=O)NC34CC5CC(CC(C5)C3)C4)o2)c1]	0.0398	0.126	0.316	–
O=C(N/N=C/c1c2ccccc2cc2ccccc12)NC12CC3CC(CC(C3)C1)C2 [AK-968/40204236, O=C(N/N=C/c1c2ccccc2cc2ccccc12)NC12CC3CC(CC(C3)C1)C2]	–	–	–	pIC50 rsEH (rat sEH (rsEH)): 6.5; pIC50 msEH (mouse sEH (msEH)): 5.8
O=C(NCCC(c1ccccc1)c1ccccc1)NC1CCCCC1 [AK-968/41927527, O=C(NCCC(c1ccccc1)c1ccccc1)NC1CCCCC1]	0.000398	0.000398	0.00126	IC50 hsEH ([1]; human enzyme): subnanomolar
O=C(CSc1nc(-c2ccccc2)cn1-c1ccccc1)NC(=O)Nc1ccccc1 [AO-476/43362680, O=C(CSc1nc(-c2ccccc2)cn1-c1ccccc1)NC(=O)Nc1ccccc1]	25.1	3.98	25.1	–
O=C(NC1CCC(Oc2ccc(C(=O)O)cc2)CC1)NC12CC3CC(CC(C3)C1)C2 (stereo not drawn) [TR_mol5, 4-[(trans-4-{[(3s,5s,7s)-tricyclo[3.3.1.1∼3,7∼]dec-1-ylcarbamoyl]amino}cyclohexyl)oxy]benzoic acid]	–	–	–	pIC50 (hsEH): 8.9
O=C(Nc1ccc2c(c1)-c1ccccc1S2(=O)=O)N1CCC(F)(F)CC1 [TR_mol15, N-(5,5-dioxodibenzothiophen-2-yl)-4,4-difluoro-piperidine-1-carboxamide]	–	–	–	pIC50 (hsEH): 7.8
O=C(NC[C@H]1COc2ccccc2O1)c1ccc2c(c1)N(Cc1cccc(Cl)c1)C(=O)CS2 [TR_mol17, 4-[(3-chlorophenyl)methyl]-N-[[(3S)-2,3-dihydro-1,4-benzodioxin-3-yl]methyl]-3-oxidanylidene-1,4-benzothiazine-6-carboxamide]	–	–	–	pIC50 (hsEH): 7.5
O=C(O)CCCNC(=O)NC1CCCCC1 [TR_mol23]	–	–	–	pIC50 (hsEH): 3.3
O=C(O)CCCCCNC(=O)NC1CCCCC1 [TR_mol33]	–	–	–	pIC50 (hsEH): 3.6
O=C(COC(=O)c1ccc(N2CCCC2=O)cc1)NC(=O)NC12CC3CC(CC(C3)C1)C2 [Z23294293, O=C(COC(=O)c1ccc(N2CCCC2=O)cc1)NC(=O)NC12CC3CC(CC(C3)C1)C2]	0.0398	0.1	0.631	–
O=C(NCCC(=O)N1CCN(S(=O)(=O)c2ccccc2F)CC1)NC12CC3CC(CC(C3)C1)C2 [Z29532165, O=C(NCCC(=O)N1CCN(S(=O)(=O)c2ccccc2F)CC1)NC12CC3CC(CC(C3)C1)C2]	0.0398	0.501	0.398	–
O=C(NNC(=O)c1ccc(COc2ccccc2)cc1)NC12CC3CC(CC(C3)C1)C2 [Z44611499, O=C(NNC(=O)c1ccc(COc2ccccc2)cc1)NC12CC3CC(CC(C3)C1)C2]	0.02	0.00631	0.126	IC50 ([1]; human enzyme, read-out: IC50 hsEH): < 0.02 µM
CC(C(=O)NC(=O)NC12CC3CC(CC(C3)C1)C2)N1CCN(C(=O)C2COc3ccccc3O2)CC1 (stereo not shown) [Z65159029, CC(C(=O)NC(=O)NC12CC3CC(CC(C3)C1)C2)N1CCN(C(=O)C2COc3ccccc3O2)CC1]	2	5.01	20	–
O=C(NCc1ccc(N2CCCC2=O)cc1)NCc1cccc(C(F)(F)F)c1 [Z211761694, O=C(NCc1ccc(N2CCCC2=O)cc1)NCc1cccc(C(F)(F)F)c1]	0.2	0.2	0.501	–
CC(NC(=O)NCc1ccc(N2CCCC2=O)cc1)c1cccc(Cl)c1 (stereo not shown) [Z211852480, CC(NC(=O)NCc1ccc(N2CCCC2=O)cc1)c1cccc(Cl)c1]	0.501	0.126	0.631	–
CC(C)N1CCC(NC(=O)NCCC(c2ccccc2)c2ccccc2)CC1 [Z339670416, CC(C)N1CCC(NC(=O)NCCC(c2ccccc2)c2ccccc2)CC1]	0.501	0.1	1.58	–
NC(=O)COc1ccc(NC(=O)NCCC(c2ccccc2)c2ccccc2)cc1 [Z339843288, NC(=O)COc1ccc(NC(=O)NCCC(c2ccccc2)c2ccccc2)cc1]	0.001	0.00126	0.00126	–
O=C(NCc1ccc(-c2nc3ccccc3s2)o1)NC1CCCC(C(F)(F)F)C1 (stereo not shown) [Z353003074, O=C(NCc1ccc(-c2nc3ccccc3s2)o1)NC1CCCC(C(F)(F)F)C1]	0.00501	0.00631	0.01	–
CC1CCCCC1OCCNC(=O)Nc1cccc(OCc2ccccn2)c1 (stereo not shown) [Z416144030, CC1CCCCC1OCCNC(=O)Nc1cccc(OCc2ccccn2)c1]	0.02	0.0158	0.2	–
CC1CCC(NC(=O)Nc2cccc(Cn3nc4ccccn4c3=O)c2)CC1 (stereo not shown) [Z436130862, CC1CCC(NC(=O)Nc2cccc(Cn3nc4ccccn4c3=O)c2)CC1]	0.001	0.000794	0.001	IC50 hsEH ([1]; human enzyme): subnanomolar
CC(=O)CCc1ccc(OCC(=O)N2CCCC(CNC(=O)Nc3ccc(C)cc3)C2)cc1 (stereo not shown) [Z1033382608, CC(=O)CCc1ccc(OCC(=O)N2CCCC(CNC(=O)Nc3ccc(C)cc3)C2)cc1]	0.398	0.501	3.16	–
